{"source": "patent US20070219224A1", "about": "“Compositions and Methods Relating to Pyrimidine Synthesis Inhibitors” (UAB RESEARCH FOUNDATION, THE, priority 2004, published 2007)", "key": {"UTP/ATP content of BALF": {"tested_on": "UTP/ATP content of BALF", "test": "Measurement of nucleotides (UTP/ATP content) in BALF of RSV-infected mice", "type": "in vivo, BALB/c mice", "protocol": "(§1) Preparation of viral inocula and infection of mice. Preparation of viral stocks and intranasal infection of eight to twelve week-old pathogen-free BALB/c mice of either sex with RSV strain A2 (10^6 PFU in 100 μl) were performed as described in Davis et al., “Nucleotide-mediated inhibition of alveolar fluid clearance in BALB/c mice after respiratory syncytial virus infection,” Am. J. Physiol. Lung Cell Mol. Physiol. 286:L112-L120. (2004). Data for each experimental group was derived from a minimum of 2 independent infections.\n(§2) Bronchoalveolar lavage. Bronchoalveolar lavage fluid (BALF) was collected as previously described in Davis et al., (2004), using 1 ml of sterile normal saline for cytokine ELISAs, or 0.3 ml of sterile saline for nucleotide assays. Lavagates were centrifuged to remove cells and supernatants stored at −80° C.\nMeasurement of nucleotides in BALF. Endogenous nucleotidases in BALF were heat denatured (100° C., 3 minutes) and UTP/ATP content measured using the […] and luciferine-luciferase assays, respectively.\n(§3) Systemic inhibition of de novo pyrimidine and purine synthesis. Leflunomide (5-methylisoxazole-4-[4-trifluoromethyl]carboxanilide, 35 mg/kg in distilled water containing 1% methylcellulose) was administered once daily by oral gavage in a volume of 300 μl/mouse for 8 days prior to infection, then throughout the infection period. Vehicle controls were gavaged with an equivalent volume of 1% methylcellulose in distilled water. […]"}, "uninfected BALB/c mice": {"tested_on": "uninfected BALB/c mice", "test": "Alveolar fluid clearance (AFC) in uninfected or mock-infected mice", "type": "in vivo", "conditions": "for effect on AFC in uninfected / normal (mock-infected) mice (in words): leflunomide oral gavage", "protocol": "Systemic inhibition of de novo pyrimidine and purine synthesis. […] Vehicle controls were gavaged with an equivalent volume of 1% methylcellulose in distilled water. Uridine (1 g/kg in 0.9% NaCl) was administered by i.p. injection every 12 hours in a volume of 100 μl (8). […]\nAFC studies were performed on anesthetized, ventilated BALB/c mice with normal body temperature and blood gases, over a 30 minute period after intratracheal instillation of 0.3 ml of isosmolar NaCl containing 5% fatty acid-free BSA. The number of mice analyzed per group is listed in the relevant bar of each graph."}, "[1]": {"tested_on": "IFN-α, IL-1β, KC, TNF-α in BALF", "test": "Measurement of proinflammatory cytokines in BALF (ELISA)", "type": "in vivo, BALB/c mice", "conditions": "RSV-infected mice, d2", "protocol": "as §1, §2\nSystemic inhibition of de novo pyrimidine and purine synthesis. Leflunomide (5-methylisoxazole-4-[4-trifluoromethyl]carboxanilide, 35 mg/kg in distilled water containing 1% methylcellulose) was administered once daily by oral gavage in a volume of 300 μl/mouse for 8 days prior to infection, then throughout the infection period. Vehicle controls were gavaged with an equivalent volume of 1% methylcellulose in distilled water. […].\nMeasurement of proinflammatory cytokines in BALF. Cytokine levels were determined using Quantikine M ELISA kits (R & D Systems), in accordance with manufacturer's instructions."}, "[2]": {"type": "in vivo", "conditions": "for body weight loss after RSV infection: D1 and d2 p.i., versus untreated RSV-infected mice", "protocol": "as §1, §3"}, "RSV-infected BALB/c mice [3]": {"tested_on": "RSV-infected BALB/c mice", "test": "Lung water content (wet:dry weight ratio) after RSV infection", "type": "in vivo", "conditions": "day 2, systemic treatment", "protocol": "as §1, §3"}, "RSV strain A2": {"tested_on": "RSV strain A2", "test": "RSV replication in mouse lungs", "type": "in vivo, Respiratory syncytial virus", "conditions": "for virus replication in lung tissue at d2: RSV-infected mice, day 2 p.i., systemic treatment", "protocol": "as §1, §3"}, "RSV-infected BALB/c mice [4]": {"tested_on": "RSV-infected BALB/c mice", "test": "Mean peripheral blood oxygen saturation (SmO2), pulse oximetry", "type": "in vivo", "conditions": "d2", "protocol": "Measurement of mean peripheral blood oxygen saturation. Peripheral blood oxygen saturation was measured in conscious mice, using a PREEMIE OXYTIP® sensor (Datex-Olmeda, hic., Madison, Wis.), connected to a TUFFSAT™ pulse oximeter (Datex-Ohmeda, Inc., Madison, Wis.). Because of the extremely rapid pulse rate of the mouse, oximetry values are mean hemoglobin O2 saturation (SmO2) values from arterial and venous blood.\n(§4) Systemic inhibition of de novo pyrimidine and purine synthesis. Leflunomide (5-methylisoxazole-4-[4-trifluoromethyl]carboxanilide, 35 mg/kg in distilled water containing 1% methylcellulose) was administered once daily by oral gavage in a volume of 300 μl/mouse for 8 days prior to infection, then throughout the infection period. Vehicle controls were gavaged with an equivalent volume of 1% methylcellulose in distilled water. Uridine (1 g/kg in 0.9% NaCl) was administered by i.p. injection every 12 hours in a volume of 100 μl (8). 6-MP (35 mg/kg in 1N NaOH, pH adjusted to 7.9 with 2 M Na2HPO4) was administered by i.p. injection every 24 hours in a volume of 100 μl, for 5 days prior to infection, then throughout the infection period."}, "RSV-infected BALB/c mice [5]": {"tested_on": "RSV-infected BALB/c mice", "test": "Nasal potential difference (NPD, NPDAMIL)", "type": "in vivo", "conditions": "leflunomide throughout the infection period", "protocol": "Measurement of nasal potential difference. The potential difference across the nares of anesthetized mice (with the tail as reference) was measured as previously described Grubb et al., (1994) “Hyperabsorption of Na+ and raised Ca(2+)-mediated Cl-secretion in nasal epithelia of CF mice,” Am. J. Physiol 266:C1478-C1483. A baseline NPD was recorded during perfusion of the nasal epithelium with lactated Ringer's solution. The amiloride-sensitive component of NPD (NPDAMIL) was determined by perfusion with lactated Ringer's solution containing 100 μM amiloride. Current pulses of ±60 nA were applied across the epithelium by a 12V battery in series with a 200 MΩ resistor. Changes in NPD in response to the current pulses (proportional to nasal transepithelial resistance, NRte) were recorded (ΔNPD).\nas §4, with “6-MP (35 mg/kg in 1N NaOH, pH adjusted to 7.9 with 2 M Na2HPO4) was administered by i.p. injection every 24 hours in a volume of 100 μl, for 5 days prior to infection, then throughout the infection period.” left out"}, "[6]": {"conditions": "d2, leflunomide 35 mg/kg oral gavage once daily, uridine 1 g/kg i.p. every 12 hours"}}, "note": "“Also recorded” adds a separate entry of the source. Read-outs that look alike come from different tables or passages of the source. Marks after values point to notes of the source that are not given here."}
{"smiles": "Cc1oncc1C(=O)Nc1ccc(C(F)(F)F)cc1", "note": "[Leflunomide, 5-methylisoxazole-4-[4-trifluoromethyl]carboxanilide]", "values": [{"measurement": "effect on BALF nucleotide (UTP, ATP) levels (in words)", "setting": "UTP/ATP content of BALF; d2", "result": "No increase in BALF nucleotide levels was detected; also recorded: reduced BALF content of both nucleotides to levels below those in untreated, uninfected mice"}, {"measurement": "ATP, mean nucleotide concentration in BALF ± SE", "setting": "UTP/ATP content of BALF; [6]", "result": "6 ± 1", "unit": "nmol/L"}, {"measurement": "UTP, mean nucleotide concentration in BALF ± SE", "setting": "UTP/ATP content of BALF; [6]", "result": "5 ± 2", "unit": "nmol/L"}, {"measurement": "effect on AFC in uninfected / normal (mock-infected) mice (in words)", "setting": "uninfected BALB/c mice", "result": "no detrimental effect on AFC"}, {"measurement": "effect on AFC in uninfected / normal (mock-infected) mice (in words)", "setting": "uninfected BALB/c mice; listed as LEF", "result": "no effect on AFC"}, {"measurement": "effect on AFC in uninfected / normal (mock-infected) mice (in words)", "setting": "uninfected BALB/c mice; listed as leflunomide", "result": "significant inhibition of AFC"}, {"measurement": "AFC30BASAL (mean % basal AFC after 30 minutes ± SE)", "setting": "uninfected BALB/c mice; mock-infected mice, leflunomide 5 mg/kg oral gavage once daily", "result": "33.16 ± 2.40", "unit": "%"}, {"measurement": "AFC (mean % AFC ± SE)", "setting": "uninfected BALB/c mice; uninfected mice, leflunomide-treated", "result": "29.98 ± 1.5", "unit": "%"}, {"measurement": "BALF proinflammatory cytokine levels (IFN-α, IL-1β, KC, TNF-α) (in words)", "setting": "[1]", "result": "significantly reduced"}, {"measurement": "BALF proinflammatory cytokine levels (IFN-α, IL-1β, KC, TNF-α) (in words)", "setting": "[1]; listed as LEF", "result": "significant reduction"}, {"measurement": "IFN-α, mean cytokine concentration in BALF ± SE", "setting": "[1]; systemic treatment", "result": "72 ± 12", "unit": "pg/mL"}, {"measurement": "IL-1β, mean cytokine concentration in BALF ± SE", "setting": "[1]; systemic treatment", "result": "20 ± 8", "unit": "pg/mL"}, {"measurement": "KC, mean cytokine concentration in BALF ± SE", "setting": "[1]; systemic treatment", "result": "425 ± 58", "unit": "pg/mL"}, {"measurement": "TNF-α, mean cytokine concentration in BALF ± SE", "setting": "[1]; systemic treatment", "result": "0*** pg/ml"}, {"measurement": "body weight loss after RSV infection", "setting": "[2]", "result": "significantly reduced the degree of weight loss"}, {"measurement": "body weight loss after RSV infection", "setting": "[2]; listed as LEF", "result": "significant reduction in weight loss"}, {"measurement": "body weight loss after RSV infection", "setting": "[2]; listed as leflunomide", "result": "significantly reduced the degree of weight loss"}, {"measurement": "body weight during the pretreatment (preinfection) period", "setting": "[2]; before RSV infection, leflunomide 8 days, 6-MP 5 days", "result": "no significant decline in body weight"}, {"measurement": "toxicity (inferred from body weight)", "setting": "[2]; mouse, in vivo", "result": "very limited leflunomide toxicity"}, {"measurement": "lung water content (wet:dry weight ratio) (in words)", "setting": "RSV-infected BALB/c mice [3]", "result": "normalization of lung wet:dry weight ratios"}, {"measurement": "lung water content (wet:dry weight ratio) (in words)", "setting": "RSV-infected BALB/c mice [3]; listed as LEF", "result": "reverses RSV-induced increased in lung water content"}, {"measurement": "lung water content (wet:dry weight ratio) (in words)", "setting": "RSV-infected BALB/c mice [3]; listed as leflunomide", "result": "restored normal lung wet:dry weight ratios"}, {"measurement": "virus replication in lung tissue at d2", "setting": "RSV strain A2", "result": "unaffected"}, {"measurement": "virus replication in lung tissue at d2", "setting": "RSV strain A2; listed as LEF", "result": "no effect on virus replication"}, {"measurement": "virus replication at d8, treatment continued", "setting": "RSV strain A2; leflunomide continued throughout the 8 day infection period", "result": "persisted at high levels"}, {"measurement": "virus replication at d8, treatment discontinued", "setting": "RSV strain A2; leflunomide discontinued after d2", "result": "only minimally increased"}, {"measurement": "SmO2 (mean blood O2 saturation)", "setting": "RSV-infected BALB/c mice [4]", "result": "improved mean blood O2 saturation; also recorded: normalization of SmO2 readings"}, {"measurement": "basal NPD and NPDAMIL", "setting": "RSV-infected BALB/c mice [5]", "result": "completely prevented RSV-induced declines in basal NPD and NPDAMIL"}]}
